From article PMC3517478 (BMC Neurology, 2012)
Residue numbers refer to the chain shown, from its start.

Experiments:
[1] = biological target: T1, human α1R271L-GlyR expressed in HEK 293 cells (Homo sapiens, UniProt P23415, R299L); conditions: R271L
T1 sequence (P23415 29-457 R299L): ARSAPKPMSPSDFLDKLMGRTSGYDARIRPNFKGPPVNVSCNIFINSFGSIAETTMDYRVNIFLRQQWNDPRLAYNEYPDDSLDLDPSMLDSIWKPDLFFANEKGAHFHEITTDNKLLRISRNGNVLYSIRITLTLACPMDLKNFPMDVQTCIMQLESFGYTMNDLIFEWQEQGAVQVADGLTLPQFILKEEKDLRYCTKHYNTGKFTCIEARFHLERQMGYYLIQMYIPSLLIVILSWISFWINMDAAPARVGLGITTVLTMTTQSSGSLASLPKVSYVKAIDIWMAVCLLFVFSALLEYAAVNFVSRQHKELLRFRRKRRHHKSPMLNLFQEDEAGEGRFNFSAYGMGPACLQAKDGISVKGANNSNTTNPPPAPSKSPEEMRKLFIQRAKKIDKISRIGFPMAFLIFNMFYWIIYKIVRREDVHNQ
Excerpt: (§1) Human α1-, α1R271Q-, α1R271L-, α1R271K and α1S267I-GlyR subunits were transiently transfected into human embryonic kidney cells (HEK 293, ATCC, Manassas, USA). The wild type α1-GlyR -cDNA was cloned in pCIS2 (Invitrogen, San Diego, USA) vector and provided by Prof. Heinrich Betz (Max-Planck-Institut für Hirnforschung, Frankfurt am Main, Germany). For the plasmid cDNA of the mutated α1R271Q-, α1R271L-, α1R271K- and α1S267I-GlyR the eukaryotic expression vector pcDNA1amp (Invitrogen, San Diego, USA), under the control of cytomegalovirus promoter, was used. For site-directed mutagenesis, single stranded template cDNA was synthesized from M13 origin of replication and the mutations of arginine residue (R) at position 271 to glutamine (R271Q), leucine (R271L) or lysine (R271K) and mutation of serine residue (S) at position 267 to isoleucine (S267I) were generated using standard procedures. […] Wild type and mutated α1-GlyR subunits efficiently form homomeric receptors in heterologous expression systems.
(§2) HEK 293 cells were cultured in medium containing HAMS’F-12 (Biochrom, Berlin, Germany), supplemented with 10% fetal bovine serum (FBS, Biochrom, Berlin, Germany), 100 U ml^–1 penicillin and 100μgml^–1 streptomycin (Gibco BRL, Life Technologies, Karlsruhe, Germany) at 37°C in a 5% CO2/ 95% air incubator. For transfection cells were suspended in a buffer containing 50mM K2HPO4 (Fluka BioChemika, Seelze, Germany), 20mMK-acetate (Sigma-Aldrich, Taufkirchen, Germany) and 25mM MgSO4 (Sigma-Aldrich, Taufkirchen, Germany) at pH 7.35. To visualize transfected cells, they were co-transfected with cDNA encoding for enhanced green fluorescent protein (EGFP) contained in the pEGFP-N1 expression vector (Clontech, Palo Alto, USA). The corresponding cDNA (5μg for the GlyR and 2.5μg for EGFP) was added to 400μl of the cell suspension and the mixture was rapidly transferred into the electroporation cuvette. For transfection we used an electroporation device by EquiBio (Kent, UK) and a 4mm aluminum electrode electroporation cuvette (Peqlab, Erlangen, Germany).
(§3) The phenol derivative 4-chloropropofol ([…]) was provided as pure substance by Prof. Paul M. O’Neill (University of Liverpool, England), prepared as light-protected 1M stock solution in ethanol (EtOH, J.T.Baker, Griesheim, Germany) and stored in glass vessels at −20°C.
(§4) Drug-containing vials were vigorously vortexed for 30min. Patch electrodes were filled with an intracellular solution of [mM] KCl 140, MgCl2 2, EGTA 11, HEPES 10, glucose 11, CaCl2 1 with pH 7.3, adjusted with 1 M KOH and a bath solution contained [mM] NaCl 162, KCl 5.31, NaHPO4 0.85, KH2PO4 0.22, HEPES 15, glucose 6.11, pH 7.4 adjusted with 1 M NaOH. Osmolarity of both solutions was set at 280–300 mOsmol.
(§5) Whole-cell experiments were performed at a holding potential of −30 mV with a mean seal resistance of 1 GΩ. […] A fast liquid filament switch technique was used for the application of the agonist, presented in pulses of 2 s duration every 20 s. The liquid filament switch technique is able to exchange the solution passing an outside-out patch or small whole-cells within 1–2 ms. We calculated flow rate of background solution through the chamber with 3,4 ml/min corresponding to 4% of maximal pump rate. With regard to the chamber volume of 100 μl the exchange solution time within the chamber was assessed to approximately […], dependent on cell size accordingly. Piezo-switch and small diameter capillary (ID 0.15 mm) within the measurement chamber promoted the millisecond solution exchange. […] The induced current (I) by this saturating control solution was defined as Icontrol. […] The stability of the seal was controlled during the complete experiment via control of the seal resistance. A variation of 10-20% of the basic value was regarded as tolerable.

[2] = biological target: T2, human α1R271Q-GlyR expressed in HEK 293 cells (Homo sapiens, UniProt P23415, R299Q); conditions: R271Q
T2 sequence (P23415 29-457 R299Q): T1 sequence (P23415 29-457 R299L) with L271Q
Excerpt: as §1, §2, §3, §4, §5

WT glycine receptor = conditions: on cell mode, 4 s drug application; cited from earlier work
[3] = 10-90% of Imax, monoexponential fit

NCC(=O)O [glycine]
Current amplitude [% of mean WT current amplitude] ± SEM [1]: 20.5±12% | nH ± SEM (Hill coefficient), glycine activation [1]: 1.8±0.7 | Rise time ± SEM [1, 3]: 998 ± 129 ms | Mean current amplitude ± SEM ([1]; saturating glycine 300 mM): 336±51 pA | Current amplitude [% of mean WT current amplitude] ± SEM [2]: 7.5±15% | nH ± SEM (Hill coefficient), glycine activation [2]: 1.0±0.6 | current peaks ([2]; 1 mM glycine): less than 50 pA | activation by low glycine concentrations ([2]; 10-100 μM glycine): lacks activation | Rise time ± SEM [2, 3]: 673 ± 224 ms | rise time (WT glycine receptor): 0.4 ms
